Measurements reported in patent US9074180B2, “Culture medium containing kinase inhibitors, and uses thereof” (THE UNIVERSITY COURT OF THE UNIVERSITY OF EDINBURGH, priority 2006, dated 2015).

What was measured:
Mouse ES cells = assay: Mouse ES cell self-renewal culture; format: cell-based; details: for ES cell propagation: single inhibitor in N2B27 medium containing LIF without BMP4; for Oct4/Sox1 marker status: single inhibitor in N2B27 medium without added LIF; for toxicity to ES cells: GSK-3 inhibitor alone in ES cell culture
Protocol: Mouse ES cells were cultured in the presence of an inhibitor of the FGF receptor and a MEK inhibitor. […] Undifferentiated cultures can be continuously passaged in these conditions while retaining expression of the pluripotency markers Oct4, Nanog, and Rex1.
However, these cells invariably differentiate and/or die after passaging. To reduce potential toxic side effects we used 2.5 fold lower doses and combined the two inhibitors together. […] Viability is lower and population doubling time slower in this two inhibitor (2i) condition than in the presence of ILIF, but differentiation is effectively restrained.
We reasoned that reduced growth of ES cells in 2i media could be due to increased activity of glycogen synthase kinase 3 (GSK-3) consequent to release of inhibitory phosphorylation by Rsk downstream of pErk. […] In serum-free N2B27 medium the differentiation response is reduced and some colonies appear morphologically Undifferentiated for several days.
However, when CHIR99021 is combined with 2i the differentiation response is lost entirely. Furthermore, CHIR99021 modulated the response to 2i such that ES cells grew as compact three dimensional colonies rather than flattened monolayers typically seen in LIF plus serum/BMP or in 2i. Differentiation was negligible in the three inhibitors (3i) and ES cells propagated rapidly. Most importantly undifferentiated colonies grew up at high efficiency after passaging (data not shown).

[1] = test system: cyclin-dependent kinases (CDKs); details: at concentrations that completely block GSK-3 activity; cited from earlier work
Human ES cells = assay: Human ES cell culture; format: cell-based; details: media supplemented with CHIR99021 and PD184352; data not shown
[2] = test system: RH ES cells fused to Neural Stem cells (NS TGFP); assay: ES-NS cell fusion, pluripotent hybrid colony formation (reprogramming); format: cell-based
Protocol: (FIGS. 1A-1C)—FACS analysis for red and green fluorescence of RH×NS TGFP fusions. (FIG. 1A) Fusion mixture 24 hours after PEG treatment; (FIG. 1B) Purity check of FACS sorted hybrids gated in A. (FIG. 1C) Hybrids sorted in A were plated and the formed colonies were scored as percentage of colonies per plated hybrid. These scores take into account the purity of the FACS sorted cells. (FIG. 1D) Summary of data. (FIG. 1E) Examples of hybrid colony morphology.
RH ES cells, which express constitutively the dsRed fluorescent protein and hygromycin resistance, were fused to foetal derived Neural Stem cells (NS TGFP) that express the fusion protein TauGFP linked via an IRES to puromycin resistance. […] In the control no PD184352 was added. Treated and untreated primary hybrids were sorted 24 hours after fusion and then plated (FIG. 1A-C). Hygromycin and puromycin selection were added to the ES medium 3 days later. […] This effect is likely to be mediated by the increased levels of Nanog in treated RH cells. Accordingly, if Nanog is endogenously expressed then the MEK inhibitor can be used to upregulate Nanog and achieve associated effects, such as increased reprogramming.

Nanog = Nanog levels and Nanog dependence of self-renewal in ES cells; format: cell-based; details: data not shown
Excerpt: In fact, these cells differentiated.

FGF receptor = assay: Substitution of FGFR antagonist in culture medium; format: cell-based; details: substituting for SU5402
Protocol: Suitable concentrations of SU5402 are in the micromolar range, such as from 0.1-20 μM. Some embodiments use concentrations in the range 0.5-10 μM, especially in the range 1-5 μM.

Cc1c[nH]c(/C=C2\C(=O)Nc3ccccc32)c1CCC(=O)O [SU5402]
ES cell propagation (Mouse ES cells): sufficient for robust ES cell propagation | Oct4/Sox1 marker status (Mouse ES cells): remain Oct4 positive and Sox1 negative for several days

Cc1c[nH]c(-c2cnc(NCCNc3ccc(C#N)cn3)nc2-c2ccc(Cl)cc2Cl)n1 [CHIR99021]
differentiation response (Mouse ES cells; 3 μM, in the presence of serum, even with LIF): promotes differentiation | persistence of undifferentiated cells after passaging (Mouse ES cells; serum-free N2B27 medium, GSK-3 inhibitor alone): Undifferentiated cells do not persist after passaging | cross reaction with CDKs [1]: does not cross react

LIF: Leukaemia Inhibitory Factor, gp130 receptor binding cytokine
propagation of cells on addition of LIF (Mouse ES cells; media supplemented with CHIR99021 and PD184352, data not shown): further improved propagation | propagation of cells on addition of LIF (Human ES cells): further improved propagation

O=C(NOCC1CC1)c1ccc(F)c(F)c1Nc1ccc(I)cc1Cl [PD184352]
percentage of hybrid colonies formed per plated hybrid ([2]; PD184352 treated RH cells (3 μM)): 2.25% | enhancement of ES-NS hybrid colony formation ([2]; RH cells treated 3 days prior and after fusion with 3 μM PD184352, vs untreated control): 45 fold | ES cell self-renewal in Nanog −/− ES cells (Nanog; Nanog −/− ES cells): failed to show enhancing of ES cell self-renewal | levels of Nanog in ES cells (Nanog): increases the levels of Nanog | ES cell propagation (Mouse ES cells): sufficient for robust ES cell propagation | Oct4/Sox1 marker status (Mouse ES cells): remain Oct4 positive and Sox1 negative for several days

O=C1NC(=O)C(c2ccccc2[N+](=O)[O-])=C1Nc1ccc(O)c(Cl)c1 [SB415286]
toxicity to ES cells (Mouse ES cells): somewhat toxic

CCN(CC)CCCCNc1ncc2cc(-c3cc(OC)cc(OC)c3)c(NC(=O)NC(C)(C)C)nc2n1 [PD173074]
fully effective concentration relative to SU5402 (fold lower) (FGF receptor): about 100 fold

Cn1cc(C2=C(c3ccc(Cl)cc3Cl)C(=O)NC2=O)c2ccccc21 [SB216763]
toxicity to ES cells (Mouse ES cells): somewhat toxic
